Drawing on ChEMBL document CHEMBL2094260, “Malaria Box Tuberculosis Screening Data”, this text covers inhibition for 46 compounds.

Experiment [1] deals with Mycobacterium tuberculosis. The experiment in a line: MMV: Screen against Mtb, single point, non replicating, at 25uM. In kind it is functional.
The subject of experiment [2] is Mycobacterium tuberculosis. The experiment in a line: MMV: Screen against Mtb, single point, replicating, at 25uM. In kind it is functional.

As to `COc1ccc(-c2cc3c(nn2)-c2ccccc2C3=O)cc1`, the results for the inhibition at 25 µM in experiment [1] and in experiment [2] were 26.7% and 39%, respectively.
For `c1ccc(/C2=N/c3ccccc3/N=C(/c3ccccc3)c3ccccc32)cc1`, in that order: 23.5% and 22.3%.
For the compound `CCOC(=O)C1=C(C)N=c2sc(=Cc3ccccc3O)c(=O)n2C1c1ccc(OC)c2ccccc12` (configuration not stated), the inhibition at 25 µM worked out at 24.4% in experiment [1] and 4% in experiment [2].
Turning to `COc1ccc(CN2CCCC(C(=O)c3ccc(C(F)(F)F)cc3)C2)c(O)c1` (configuration not stated), the inhibition at 25 µM in experiment [1] was found to be 1.85%; in experiment [2], 35.3%.
On to `O=C(NC1CCCCC1)C(c1cccs1)N(CCc1ccccc1)C(=O)c1ccco1` (configuration not stated), for which the figures for the inhibition at 25 µM in experiment [1] and in experiment [2] were 2.2% and 22.2%, respectively.
For `c1ccc2c(NCCCCCCNc3c4c(nc5ccccc35)CCCC4)c3c(nc2c1)CCCC3`, in that order: 17.8% and 32.7%.
Consider `Cc1ccnc(NC(c2cccc(OCc3ccccc3)c2)c2ccc3cccnc3c2O)c1` (configuration not stated), for which the inhibition at 25 µM in experiment [1] was 22.3%; in experiment [2], 6.19%.
`N=c1c2ccccc2nnn1-c1cccc(C(F)(F)F)c1`: the inhibition at 25 µM is -4.19% in experiment [1] and 7.29% in experiment [2].
For `COc1cc(-c2nc(-c3ccc(Sc4ccccc4)cc3)c(-c3ccccc3)[nH]2)cc(OC)c1O`, in that order: 13.6% and 16.5%.
For `O=c1cc(NC2CCN(CCCc3ccccc3)CC2)c2cc(Cl)ccc2o1`, in that order: 14.3% and 24.2%.
For `OC(Cn1nnc2ccccc21)Cn1c2ccc(Br)cc2c2cc(Br)ccc21` (configuration not stated), in that order: -5.78% and 4.62%.
On to `CCOc1ccc(-n2cc(-c3ccccc3)c3c(SCc4cc(C)ccc4C)ncnc32)cc1`, for which the inhibition at 25 µM in experiment [1] was 21.9%; in experiment [2] it was -0.392%.
For `Cc1ccc(C)c(Cn2c(N3CCC(C(=O)NCc4cccs4)CC3)nc3ccccc32)c1`, in that order: 10.4% and 22%.
For `Cc1ccccc1OCCSc1nc2ccc(NC(=O)c3cccs3)cc2s1`, in that order: 16.4% and 51.3%.
Regarding `CC1CCN(Cc2c(O)ccc3cc(-c4nc5ccccc5s4)c(=O)oc23)CC1`, the inhibition at 25 µM was determined as 12% in experiment [1] and 8.23% in experiment [2].
For `COc1ccc(C2C(C(=O)Nc3cccc(OC)c3)c3ccccc3C(=O)N2C2CCCCC2)cc1` (configuration not stated), in that order: 29% and 19.5%.
`c1ccc2c(NCCc3c[nH]c4ccccc34)c3ccccc3nc2c1`: the inhibition at 25 µM is 17.8% in experiment [1] and 47.1% in experiment [2].
For `O=C(Nc1ccc(C23CC4CC(CC(c5ccccc5)(C4)C2)C3)cc1)c1cccs1`, in that order: -0.283% and 9.48%.
For `CCN(CC)CCCNc1ccnc2cc3ccccc3cc12`, in that order: 14.6% and 8.7%.
For `CCOC(=O)c1cnc2c(C)cccc2c1Nc1ccc(C(C)=O)cc1`, in that order: 8.24% and 0.392%.
In the case of `O=C(Nc1ccc(-c2nc3cc4ccccc4cc3[nH]2)cc1)c1cccc(Br)c1`, the inhibition at 25 µM in experiment [1] turned out to be 37%; in experiment [2], 8.07%.
For `Cc1ccc(-c2nc3ccccc3o2)cc1NCc1cc(Cc2ccccc2)ccc1O`, in that order: 10.4% and 1.18%.
For `Cc1ccc(C2CC(C(F)(F)F)n3nc(C(=O)N4CCN(C(c5ccccc5)c5ccccc5)CC4)cc3N2)cc1` (configuration not stated), in that order: 10.5% and 14.3%.
In the case of `Cc1ccc2nc(C)cc(Nc3cccc(C(F)(F)F)c3)c2c1`, the inhibition at 25 µM was determined as 10.4% in experiment [1] and 39% in experiment [2].
With `COc1cccc(C(=O)NC(c2ccc(C)cc2)c2cc(Cl)c3cccnc3c2O)c1` (configuration not stated), the figures for the inhibition at 25 µM in experiment [1] and in experiment [2] were 14.3% and 10.4%, respectively.
For the compound `COc1ccc(C(O)(CCC(C)C)C(CN2CCOCC2)c2ccc(Cl)cc2)cc1` (configuration not stated), the results for the inhibition at 25 µM in experiment [1] and in experiment [2] were 10% and 4.78%, respectively.
Consider `CCCOCc1cc(CN2CCN(c3cccc(Cl)c3)CC2)c(O)c2ncccc12`, for which the results for the inhibition at 25 µM in experiment [1] and in experiment [2] were 1.85% and 5.25%, respectively.
Turning to `O=C(Cc1ccccc1)NC(c1ccc(Cl)cc1)c1c(O)ccc2ccccc12` (configuration not stated), the inhibition at 25 µM was -0.46% in experiment [1] and 12% in experiment [2].
Regarding `CCOc1ccc2c(c1)CN(Cc1ccc(Cl)cc1)CO2`, the inhibition at 25 µM stood at 20.5% in experiment [1] and 16.1% in experiment [2].
For `CCCCC(O)(c1ccc(Cl)cc1)C(CN1CCOCC1)c1ccc(Cl)cc1` (configuration not stated), in that order: 15.2% and 17.3%.
For `COc1ccc(C(=O)NC(c2ccccc2Cl)c2cc(Cl)c3cccnc3c2O)cc1` (configuration not stated), in that order: 5.04% and 10.6%.
For `Cc1cccc(N2C(=O)C3C(C2=O)C2(c4ccccc4)C(=O)C3(c3ccccc3)C(c3ccc4c(c3)OCO4)=C2c2ccc3c(c2)OCO3)c1` (configuration not stated), in that order: 16.4% and 23.1%.
With `Cc1cc(=O)oc2c1ccc1oc(C(=O)c3ccccc3)c(C)c12`, the inhibition at 25 µM in experiment [1] amounted to 21.4%; in experiment [2] it was 13.4%.
On to `COc1ccc2c(c1OC)C(=O)N1c3ccccc3N=C(c3ccc(C)cc3)CC21` (configuration not stated), for which the inhibition at 25 µM in experiment [1] is 15.2%; in experiment [2] it was 4.94%.
As for `CCCCCCc1cc(O)c2c3c(c(=O)oc2c1)CCC(C)C3` (configuration not stated), the inhibition at 25 µM in experiment [1] was 11.4%; in experiment [2], 12.8%.
As for `CCCc1c(C)nc2ccc(Br)cc2c1O`, the values for the inhibition at 25 µM in experiment [1] and in experiment [2] were 12.5% and 13.7%, respectively.
Take `COc1ccc(CCNC(=O)c2cc(S(=O)(=O)N3CC(C)CC(C)C3)ccc2Sc2ccc(F)cc2)cc1OC` (configuration not stated): the inhibition at 25 µM is 22.6% in experiment [1] and -6.51% in experiment [2].
As for `Cc1ccc(F)cc1NC(=O)c1cc(Cl)ccc1Nc1ccccc1`, the figures for the inhibition at 25 µM in experiment [1] and in experiment [2] were 28.5% and 6.66%, respectively.
For `CCOc1ccc(Nc2c3ccccc3nc3ccccc23)cc1`, in that order: 15.9% and 51.8%.
On to `CC1=C(CC(=O)c2cccc([N+](=O)[O-])c2)C(=O)c2ccccc2C1=O`, for which the inhibition at 25 µM in experiment [1] is 20.1%; in experiment [2], 40.5%.
For `CCCCCCc1cc2cc(-c3nc4ccccc4[nH]3)c(=Nc3ccccc3C)oc2cc1O`, the inhibition at 25 µM is 28.5% in experiment [1] and 4.31% in experiment [2].
For `CCCCCCC(O)(c1ccc(F)cc1)C(CN1CCOCC1)c1ccccc1` (configuration not stated), in that order: 19.8% and 3.84%.
For `COc1cc(OC)cc(N2C(=O)N(Cc3ccc(C(C)(C)C)cc3)c3ccccc3S2(=O)=O)c1`, in that order: 13.6% and 2.59%.
With `CCOc1c(Br)cc(C2C(C(=O)OC)=CN(C)C=C2C(=O)OC)cc1OC`, the inhibition at 25 µM was determined as 14.1% in experiment [1] and 7.76% in experiment [2].
For `COc1ccccc1N1C(=N)SC(=Cc2ccc(OCc3ccccc3F)cc2)C1=O`, in that order: 21.4% and 8.86%.
For `CCOC(=O)c1c[nH]c2c(CC)cccc2c1=O`, in that order: 11.1% and 4.62%.
